Data as given in patent publication US10285983B2, “3-(1H-pyrrolo[2,3-B]pyridin-2-yl)-1H-pyrazolo[3,4-B] pyridines and therapeutic uses thereof” (Samumed, LLC, priority 2015, dated 2019).

Key:
[1] = system: IL-6 (THP-1 human monocyte cell line); experiment: IL-6 inhibition in LPS-stimulated THP-1 cells (HTRF); format: cell-based; conditions: LPS 500 ng/mL; for EC50: 22 hours, IL6 HTRF; for inhibition at 10 µM: given for EC50 >10 μM, read-out: percent inhibition at 10 μM
How it was run: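 THP-1 cells, serum-reduced to 1% FBS for 24 h, preincubated 2 h at 37° C with compound (10-point, 1:3 series, 0.1% DMSO), then stimulated with 500 ng/mL LPS for 22 h. IL-6 quantified by HTRF 665/620 nm ratio, normalized to DMSO; EC50 by four-parameter fit, else percent inhibition at 10 μM.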

[2] = system: primary human mesenchymal stem cells (hMSCs); experiment: Chondrogenesis induction in hMSCs (nodule count, Rhodamine B/Nile Red); format: cell-based; conditions: 144 h, 6 days; for EC50: concentration required to induce 50% levels of chondrogenesis vs TGF-β3, read-out: Conc (nM) of 50% TGF-β3 activity; for Emax: relative to TGF-β3 (10 ng/mL) positive control, read-out: Max. Activity as % TGF-β3 activity
Experimental: Representative compounds were screened using primary human mesenchymal stem cells (hMSCs) to determine their ability to induce chondrogenesis (process by which cartilage is developed).
Primary human mesenchymal stem cells (hMSCs) were purchased from Lonza (Walkersville, Md.) and expanded in Mesenchymal Stem Cell Growth Media (Lonza). Cells between passage 3 and 6 were used for the experiments.
Each compound was dissolved in DMSO as a 10 mM stock and used to prepare compound source plates. Serial dilution (1:3, 6-point dose-response curves from 2700 nM to 10 nM) and compound transfer was performed using the ECHO 550 (Labcyte, Sunnyvale, Calif.) into 96-well clear bottom assay plates (Greiner Bio-One) with appropriate DMSO backfill for a final DMSO concentration of 0.03%. hMSCs were plated at 20,000 cells/well in 250 μL/well Incomplete Chondrogenic Induction Medium (Lonza; DMEM, dexamethasone, ascorbate, insulin-transferrin-selenium [ITS supplement], gentamycin-amphotericin [GA-1000], sodium pyruvate, proline and L-glutamine). TGF-β3 (10 ng/mL) was used as a positive control for differentiation while negative control wells were treated with 75 nL DMSO for normalization and calculating EC50 values. Cells were incubated at 37° C. and 5% CO2 for 6 days. To image chondrogenic nodules, the cells were fixed using 4% formaldehyde (Electron Microscopy Sciences), and stained with 2 μg/mL Rhodamine B (Sigma-Aldrich) and 20 μM Nile Red (Sigma-Aldrich) [Johnson K., et. al, A Stem Cell-Based Approach to Cartilage Repair, Science, (2012), 336(6082), 717-721]. The nodules imaged (4 images per well at 4× magnification) by excitation at 531 nm and emission at 625 nm and quantified using the CellInsight CX5 (Thermo Scientific). Number of nodules in each well was normalized to the average of 3 DMSO treated wells on the same plate using Excel (Microsoft Inc.). The normalized averages (fold change over DMSO) of 3 replicate wells for each compound concentration were calculated. Due to solubility limitations of some of the compounds, curve fitting was incomplete leading to inaccurate EC50 determinations.
Using TGF-β3 as a positive control, the concentration of representative compounds required to induce 50% levels of chondrogenesis is reported. In addition, the maximum activity of each compound and the respective dose that each compound reached maximum chondrogenesis activity is reported.

Row | SMILES | EC50 [1] [nM] | EC50 [2] [nM] | inhibition at 10 µM [1] [%] | Emax [2] [%]
1 | CCCCC(=O)Nc1cncc(-c2cnc3[nH]nc(-c4cc5c(-c6ccccc6F)ccnc5[nH]4)c3c2)c1 [Compound 75, N-(5-(3-(4-(2-Fluorophenyl)-1H-pyrrolo[2,3-b]pyridin-2-yl)-1H-pyrazolo [3,4-b]pyridin-5-yl)pyridin-3-yl)pentanamide] | > 10000 | 30 | 33.8 | 82
2 | CCCC(=O)Nc1cncc(-c2cnc3[nH]nc(-c4cc5c(-c6ccncc6)ccnc5[nH]4)c3c2)c1 [Compound 129, N-(5-(3-(4-(Pyridin-4-yl)-1H-pyrrolo[2,3-b]pyridin-2-yl)-1H-pyrazolo[3,4-b]pyridin-5-yl)pyridin-3-yl)butyramide] | 621 | 30 |  | 50
3 | O=C(Nc1cncc(-c2cnc3[nH]nc(-c4cc5cccnc5[nH]4)c3c2)c1)C1CCCCC1 [Compound 275, N-(5-(3-(1H-Pyrrolo[2,3-b]pyridin-2-yl)-1H-pyrazolo[3,4-b]pyridin-5-yl)pyridin-3-yl)cyclohexanecarboxamide] | 63 |  |  | 28
4 | CC(C)(C)CC(=O)Nc1cncc(-c2cnc3[nH]nc(-c4cc5c(-c6ccncc6)ccnc5[nH]4)c3c2)c1 [Compound 128, 3,3-Dimethyl-N-(5-(3-(4-(pyridin-4-yl)-1H-pyrrolo[2,3-b]pyridin-2-yl)-1H-pyrazolo[3,4-b]pyridin-5-yl)pyridin-3-yl)butanamide] | > 10000 | 300 | 45.8 | 79
5 | CCC(=O)Nc1cncc(-c2cnc3[nH]nc(-c4cc5c(N6CCCCC6)ccnc5[nH]4)c3c2)c1 [Compound 169, N-(5-(3-(4-(Piperidin-1-yl)-1H-pyrrolo[2,3-b]pyridin-2-yl)-1H-pyrazolo[3,4-b]pyridin-5-yl)pyridin-3-yl)propionamide] | 4810 | 900 |  | 183
6 | Nc1cncc(-c2cnc3[nH]nc(-c4cc5c(-c6ccncc6)ccnc5[nH]4)c3c2)c1 [Compound 115, 5-(3-(4-(Pyridin-4-yl)-1H-pyrrolo[2,3-b]pyridin-2-yl)-1H-pyrazolo[3,4-b]pyridin-5-yl)pyridin-3-amine] | > 10000 |  | 40.6 | 12
7 | CC(C)CC(=O)Nc1cncc(-c2cnc3[nH]nc(-c4cc5c(-c6cccnc6)ccnc5[nH]4)c3c2)c1 [Compound 86, 3-Methyl-N-(5-(3-(4-(pyridin-3-yl)-1H-pyrrolo[2,3-b]pyridin-2-yl)-1H-pyrazolo[3,4-b]pyridin-5-yl)pyridin-3-yl)butanamide] | > 10000 |  | 34.3 | 44
8 | c1cncc(-c2cnc3[nH]nc(-c4cc5cccnc5[nH]4)c3c2)c1 [Compound 256, 5-(Pyridin-3-yl)-3-(1H-pyrrolo[2,3-b]pyridin-2-yl)-1H-pyrazolo[3,4-b]pyridine] | 121 |  |  | 11
9 | Fc1ccc(-c2ccnc3[nH]c(-c4n[nH]c5ncc(-c6cncc(CN7CCCC7)c6)cc45)cc23)cc1 [Compound 42, 3-(4-(4-Fluorophenyl)-1H-pyrrolo[2,3-b]pyridin-2-yl)-5-(5-(pyrrolidin-1-ylmethyl)pyridin-3-yl)-1H-pyrazolo[3,4-b]pyridine] | > 10000 |  | 36.8 | 25
10 | CCNCc1cncc(-c2cnc3[nH]nc(-c4cc5c(-c6ccccc6F)ccnc5[nH]4)c3c2)c1 [Compound 62, N-((5-(3-(4-(2-Fluorophenyl)-1H-pyrrolo[2,3-b]pyridin-2-yl)-1H-pyrazolo [3,4-b]pyridin-5-yl)pyridin-3-yl)methyl)ethanamine] | > 10000 | 100 | 13.3 | 55
11 | CC(C)(C)CC(=O)Nc1cncc(-c2cnc3[nH]nc(-c4cc5cccnc5[nH]4)c3c2)c1 [Compound 268, N-(5-(3-(1H-Pyrrolo[2,3-b]pyridin-2-yl)-1H-pyrazolo[3,4-b]pyridin-5-yl)pyridin-3-yl)-3,3-dimethylbutanamide] | 359 |  |  | 23
12 | Cc1ccncc1-c1cnc2[nH]nc(-c3cc4c(-c5ccc(F)cc5)ccnc4[nH]3)c2c1 [Compound 33, 3-(4-(4-Fluorophenyl)-1H-pyrrolo[2,3-b]pyridin-2-yl)-5-(4-methylpyridin-3-yl)-1H-pyrazolo[3,4-b]pyridine] | > 10000 | 900 | 27.7 | 108
13 | c1ccc(CNCc2cncc(-c3cnc4[nH]nc(-c5cc6c(-c7ccncc7)ccnc6[nH]5)c4c3)c2)cc1 [Compound 136, N-Benzyl-1-(5-(3-(4-(pyridin-4-yl)-1H-pyrrolo[2,3-b]pyridin-2-yl)-1H-pyrazolo[3,4-b]pyridin-5-yl)pyridin-3-yl)methanamine] | > 10000 | 2700 | 23.5 | 93
14 | CN(C)Cc1cncc(-c2cnc3[nH]nc(-c4cc5c(-c6cccc(F)c6)ccnc5[nH]4)c3c2)c1 [Compound 13, 1-(5-(3-(4-(3-Fluorophenyl)-1H-pyrrolo[2,3-b]pyridin-2-yl)-1H-pyrazolo [3,4-b]pyridin-5-yl)pyridin-3-yl)-N,N-dimethylmethanamine] | > 10000 | 100 | 27.5 | 102

More lines, main results first:

Row | EC50 [1] [nM] | EC50 [2] [nM] | SMILES | inhibition at 10 µM [1] [%] | Emax [2] [%]
15 | 5360 | 10 | CCNCc1cncc(-c2cnc3[nH]nc(-c4cc5c(-c6cccnc6)ccnc5[nH]4)c3c2)c1 [Compound 90, N-((5-(3-(4-(Pyridin-3-yl)-1H-pyrrolo[2,3-b]pyridin-2-yl)-1H-pyrazolo[3,4-b]pyridin-5-yl)pyridin-3-yl)methyl)ethanamine] |  | 92
16 | > 10000 |  | Nc1cncc(-c2cnc3[nH]nc(-c4cc5c(-c6ccccc6F)ccnc5[nH]4)c3c2)c1 [Compound 59, 5-(3-(4-(2-Fluorophenyl)-1H-pyrrolo[2,3-b]pyridin-2-yl)-1H-pyrazolo[3,4-b]pyridin-5-yl)pyridin-3-amine] | 34.8 | 28
17 | 7 |  | CN(C)Cc1cncc(-c2cnc3[nH]nc(-c4cc5c(N6CCCCC6)ccnc5[nH]4)c3c2)c1 [Compound 181, N,N-Dimethyl-1-(5-(3-(4-(piperidin-1-yl)-1H-pyrrolo[2,3-b]pyridin-2-yl)-1H-pyrazolo[3,4-b]pyridin-5-yl)pyridin-3-yl)methanamine] |  | 46
18 | 310 |  | O=C(Nc1cncc(-c2cnc3[nH]nc(-c4cc5cccnc5[nH]4)c3c2)c1)c1ccccc1 [Compound 263, N-(5-(3-(1H-Pyrrolo[2,3-b]pyridin-2-yl)-1H-pyrazolo[3,4-b]pyridin-5-yl)pyridin-3-yl)benzamide] |  | 22
19 | > 10000 |  | CN(C)Cc1cncc(-c2cnc3[nH]nc(-c4cc5c(-c6cccnc6)ccnc5[nH]4)c3c2)c1 [Compound 97, N,N-Dimethyl-1-(5-(3-(4-(pyridin-3-yl)-1H-pyrrolo[2,3-b]pyridin-2-yl)-1H-pyrazolo[3,4-b]pyridin-5-yl)pyridin-3-yl)methanamine] | 38.5 | 49
20 | 41 | 900 | CCCCC(=O)Nc1cncc(-c2cnc3[nH]nc(-c4cc5cccnc5[nH]4)c3c2)c1 [Compound 271, N-(5-(3-(1H-Pyrrolo[2,3-b]pyridin-2-yl)-1H-pyrazolo[3,4-b]pyridin-5-yl)pyridin-3-yl)pentanamide] |  | 260
21 | 772 | 300 | Cn1cc(-c2cnc3[nH]nc(-c4cc5cccnc5[nH]4)c3c2)cn1 [Compound 652, 5-(1-Methyl-1H-pyrazol-4-yl)-3-(1H-pyrrolo[2,3-b]pyridin-2-yl)-1H-pyrazolo[3,4-b]pyridine] |  | 52
